# Reference: patent EP3929184A1, “((((3-HALOPHENYL)(PHENYL)METHYL)SULFINYL)METHYL)THIOPHENE COMPOUNDS AND DIASTEREOMERIC FORMS THEREOF FOR USE IN IMPROVING COGNITIVE FUNCTIONS” (Red Bull GmbH, priority 2020, dated 2021)
# What was measured:
# [1] = test system: presynaptic cells; test: Dopamine release from presynaptic cells; assay type: cell-based; conditions: different from compounds such as Amphetamines
# [2] = test system: young rats; test: Reversal of scopolamine effect in young rats; assay type: in vivo
compound,measurement,setting,value
"[O-][S+](Cc1cccs1)C(c1ccccc1)c1cccc(Br)c1 [2-2, 2-(((((R),(R)-3-bromophenyl)(phenyl)methyl)sulfinyl)methyl)thiophene]",release of dopamin from presynaptic cells,[1],does not induce release
same,effect of compounds such as scopolamine,[2],reversed
